# Measurements published in patent publication US6001383A (priority 1994, dated 1999).
# Like-named read-outs stand apart in the source and are kept apart here.
# What was measured:
# [1] = tested on: Rhyzopertha dominica (F.), strain Rd2; details: R. dominica adults, cited from earlier work
# [2] = cited from earlier work; for carcinogenicity: Sax and Lewis, 1989; for TLV value: worker safety limit
# [3] = cited from earlier work
# [4] = tested on: Cryptotermes cyanocephalos; assay: Toxicity to dry wood termites, C. cyanocephalos; format: in vivo; details: 24 h, 30° C., survival after one week
# Experimental: (§1) Termites were obtained from cultures kept at 30° C. and 80% RH. Termites were transferred to 120 mL bottles fitted with Mininert valved lids and a 325 mg chip of plywood and sealed whilst at 80% RH and 30° C. All fumigations were performed in duplicate with a sample size of 10-11 insects for C. brevis, 25 insects for C. cyanocephalos and 22 insects for C. domesticus. An appropriate volume of air was removed from the sample bottles prior to the addition of fumigants. Dosed samples were analysed on a gas chromatograph to ensure concentrations were as predicted. A second set of gas chromatograph readings was taken prior to airing to ensure fumigant concentrations had remained static throughout the exposure period. […]
# (§2) C2 N2 concentrations were measured on a Varian 3300 Gas Chromatograph equipped with a Thermionic Specific Detactor after separation on a DBwax column of internal diameter 0.53 mm. Phosphine concentrations were measured on a Shimadzu 6AM equipped with a Flame Photometric Detector. Methyl bromide concentrations were measured on a Shimadzu 6AM equipped with a Flame Ionisation Detector after separation on a GasChromQ with 20% OV-IO1 column.
# (§3) After 24 hours exposure, termites and wood chips were transferred to plastic Petri dishes each containing a large piece of plywood. Initial and one week survivals were recorded.
# Carnation = assay: Phytotoxicity to cut flowers, Carnation; details: methyl bromide 30 mg L^-1, 2 h; control 5
# Experimental: (§4) Field Carnations and Leucadendrons were purchased from a local wholesale florist. […]
# (§5) After 2 hours the drums were opened and allowed to air in a fume hood, the flowers were removed from the drums, the stems trimmed and the bunches placed in water and left in the fume hood to air for 2 hours then placed in a cool room.
# (§6) Assessment of the phytoxicity of the fumigants was done after one week of cold storage.
# (§7) The phytoxicity assessments were made by a panel of six people who were asked independently to give a value out of 10 (Where 10 is excellent and 1 is unsaleable) for each flower and each treatment. The figures given below are the averaged results.
# Leucadendron = assay: Phytotoxicity to cut flowers, Leucadendron; details: methyl bromide 30 mg L^-1, 2 h; control 7
# Experimental: as §4, §5, §6, §7
# Cryptotermes brevis = assay: Toxicity to dry wood termites, C. brevis; format: in vivo; details: 24 h, 30° C., survival after one week
# Experimental: as §1, §2, §3
# Cryptotermes domesticus = assay: Toxicity to dry wood termites, C. domesticus; format: in vivo; details: 24 h, 30° C., survival after one week
# Experimental: as §1, §2, §3
# [5] = Sorption and desorption on wheat, comparative; details: 25 g wheat; C2 N2 10 mg/L, phosphine 2 mg/L, methyl bromide 32 mg/L
# Experimental: Samples of wheat (25 g) were placed in 250 mL conical flasks of known volume. The flasks were stoppered with a gas tight stopper containing a rubber septum (injection port). Flasks were dosed with C2 N2 (10 mg/L), phosphine (2 mg/L) or methyl bromide (32 mg/L). After 24 h the headspace concentrations were determined by gas chromatography. Each flask was then opened and the wheat sample aired briefly by pouring the wheat from one container to another and then the remaining sorbed fumigant was estimated by grinding the wheat sample in a gas-tight Waring blender canister fitted was a sampling port and determining the released fumigant by head space analysis.
compound,measurement,setting,value
S=C=S [carbon disulphide],CT product for control of adults,"[1]; Monro, 1967",294.0 mghL^-1
O=C=S [carbonyl sulphide],CT product for control of adults,[1]; Desmarchelier 1994,68.7 mghL^-1
ClCCCl [ethylene dichloride],CT product for control of adults,"[1]; Monro, 1967",636.0 mghL^-1
C1CO1 [ethylene oxide],carcinogenicity,[2],suspect carcinogen
same,TLV value,[2],0.1 ppm
same,solubility in water,[3],poorly soluble in water
C=O [formaldehyde],carcinogenicity,[2],suspect carcinogen
same,TLV value,[2],1 ppm
CBr [methyl bromide],applied concentration giving 100% mortality,[4],3.47 mgL^-1
same,"phytotoxicity score (10 excellent, 1 unsaleable)",Carnation,3
same,"phytotoxicity score (10 excellent, 1 unsaleable)",Leucadendron,6
same,applied concentration giving 100% mortality,Cryptotermes brevis,1.74 mgL^-1
same,applied concentration giving 100% mortality,Cryptotermes domesticus,4.35 mgL^-1
same,initial fumigant remaining in headspace after 24 h,[5],69%
same,CT product for control of adults,"[1]; Monro, 1967",33.0 mghL^-1
P [phosphine],applied concentration giving 100% mortality,[4],0.43 mgL^-1
same,applied concentration giving 100% mortality,Cryptotermes brevis,0.43 mgL^-1
same,applied concentration giving 100% mortality,Cryptotermes domesticus,0.22 mgL^-1
same,initial fumigant remaining in headspace after 24 h,[5],91%
